Literature values, collected in US8362260B2, “Crystalline forms of dexlansoprazole” (Dipharma Francis S.r.l., priority 2009, dated 2013).

Settings: in vivo

bioavailability: greater bioavailability
Compound: Cc1c(OCC(F)(F)F)ccnc1C[S@@+]([O-])c1nc2ccccc2[nH]1 [Dexlansoprazole in amorphous form, (R)-2-[[[3-methyl-4(2,2,2-trifluoroethoxy)-2-piridyl]methyl]sulphinyl]benzimidazole]
